From article PMC5411959, “Potential Antiosteoporotic Natural Product Lead Compounds That Inhibit 17β-Hydroxysteroid Dehydrogenase Type 2” (Journal of Natural Products, 2017)
Values joined by “and” are separate entries in the source; they are usually repeats but may differ in a detail not shown here. Equal values may be shown once. Read-outs that look alike come from different tables or passages of the source.

What was measured:
[1] = biological target: T1, human 17β-HSD2 (Homo sapiens, UniProt P37059); assay: 17β-HSD2 activity assay using lysates of HEK-293 cells expressing the recombinant human enzyme; type: biochemical; conditions: for remaining activity at 20 µM: read-out: 17β-HSD2 remaining activity at 20 μM (% of control); for 17β-HSD2 inhibition (in words): tested at 20 μM; for IC50: HEK-293 lysates, 200 nM estradiol, 500 μM NAD+, 10 min 37 °C;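 as to all read-outs here: conversion of tritium-labelled estradiol (200 nM, with 500 µM NAD+, 10 min) quantified after TLC separation by scintillation counting, at least three independent measurements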
T1 construct: expressed in transfected cells; host or cells: HEK-293 (ATCC), used as cell lysate
T1 sequence (P37059 1-387): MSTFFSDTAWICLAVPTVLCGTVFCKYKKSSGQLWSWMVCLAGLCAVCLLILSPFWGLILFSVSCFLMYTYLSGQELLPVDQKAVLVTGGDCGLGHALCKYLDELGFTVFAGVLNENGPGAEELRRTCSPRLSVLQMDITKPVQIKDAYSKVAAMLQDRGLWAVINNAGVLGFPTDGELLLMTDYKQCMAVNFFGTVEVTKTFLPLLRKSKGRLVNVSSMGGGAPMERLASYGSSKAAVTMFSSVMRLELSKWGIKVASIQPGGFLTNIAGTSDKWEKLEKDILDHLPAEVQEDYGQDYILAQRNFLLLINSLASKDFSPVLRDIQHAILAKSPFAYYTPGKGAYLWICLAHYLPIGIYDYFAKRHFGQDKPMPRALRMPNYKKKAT

[2] = biological target: T2, human 17β-HSD1 (Homo sapiens, UniProt P14061); assay: 17β-HSD1 activity assay using lysates of HEK-293 cells expressing the recombinant human enzyme; type: biochemical; conditions: for IC50: HEK-293 lysates, 200 nM estrone, 500 μM NADPH; for 17β-HSD1 inhibition (in words; n.i. = no inhibition): screened at 20 μM
T2 construct: expressed in transfected cells; host or cells: HEK-293 (ATCC), used as cell lysate
T2 sequence (P14061 1-328): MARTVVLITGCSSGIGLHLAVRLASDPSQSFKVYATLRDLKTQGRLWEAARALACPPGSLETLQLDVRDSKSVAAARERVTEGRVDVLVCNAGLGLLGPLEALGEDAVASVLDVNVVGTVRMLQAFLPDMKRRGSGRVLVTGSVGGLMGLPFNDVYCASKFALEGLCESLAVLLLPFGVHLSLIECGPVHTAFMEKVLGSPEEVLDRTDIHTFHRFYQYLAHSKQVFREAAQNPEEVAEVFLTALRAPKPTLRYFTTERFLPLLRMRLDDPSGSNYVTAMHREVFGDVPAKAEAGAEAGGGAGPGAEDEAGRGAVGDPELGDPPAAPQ

[3] = tested on: 17β-HSD2; set-up: method as in PMID 18533708; conditions: cited from earlier work; for activity: 40 μM, read-out: inhibition of 17β-HSD2: % residual activity at 40 μM; for activity / IC50: mean ± SD; for classification (17β-HSD2 inhibition): flavonoid SAR model, Table 4; for IC50: read-out: inhibition of 17β-HSD2: IC50 (μM)
[4] = 20 μM compound, % of vehicle control

CCN(CC)CCCC(C)Nc1ccnc2cc(Cl)ccc12 (racemic) [S17, (±)-chloroquine, reference compound]
17β-HSD2 remaining activity at 20 μM (% of control) [1, 4]: 111 ± 13%

CCOC(=O)c1cc(O)c(O)c(O)c1 [S1, ethyl gallate]
remaining activity at 20 µM [1, 4]: 60 ± 6%

COc1cc(CCC(C)=O)ccc1O [S2, vanillyl acetone]
17β-HSD2 remaining activity at 20 μM (% of control) [1, 4]: 106 ± 9%

CCCCOC(=O)c1cc(O)c(O)c(O)c1 [S3, butyl gallate]
remaining activity at 20 µM [1, 4]: 56 ± 5%

C=CCc1ccc(O)c(OC)c1 [S4, eugenol]
remaining activity at 20 µM [1]: 94 ± 11%

COc1cc(/C=C/C(=O)O)ccc1O [S5, ferulic acid]
17β-HSD2 remaining activity at 20 μM (% of control) [1, 4]: 79 ± 10%

COc1cc(CNC(=O)CCCC/C=C/C(C)C)ccc1O [S6, capsaicin]
remaining activity at 20 µM [1]: 53 ± 6%

NC(=O)c1cccnc1 [S7, nicotinamide]
remaining activity at 20 µM [1, 4]: 106 ± 12%

O=C(/C=C/c1ccc(O)c(O)c1)O[C@@H]1C[C@](O)(C(=O)O)C[C@@H](O)[C@H]1O [S8, chlorogenic acid]
remaining activity at 20 µM [1, 4]: 97 ± 10%

O=C(O)/C=C/c1ccc(O)c(O)c1 [S9, caffeic acid]
remaining activity at 20 µM [1, 4]: 58 ± 13%

COc1cc(C)cc2oc3ccc(O)c(C(=O)O)c3c(=O)c12 [S10, 2-hydroxy-8-methoxy-6-methyl-9-oxo-9H-xanthene-1-carboxylic acid]
17β-HSD2 remaining activity at 20 μM (% of control) [1, 4]: 64 ± 5%

NC(=O)Cc1ccc(O)c(Cl)c1 [S11, 2-(3-chloro-4-hydroxyphenyl)acetamide]
remaining activity at 20 µM [1, 4]: 80 ± 10%
17β-HSD2 inhibition (in words) [1]: did not inhibit

O=C(O)Cc1ccc(O)c(Cl)c1 [S12, 2-(3-chloro-4-hydroxyphenyl)acetic acid]
remaining activity at 20 µM [1]: 88 ± 7%

COc1cc(/C=C2\N=C(N)NC2=O)ccc1O [S14, polyandrocarpamine A]
remaining activity at 20 µM [1, 4]: 101 ± 7%

O=C(O)Cc1ccc(O)cc1 [S15, 2-(4-hydroxyphenyl)acetic acid]
remaining activity at 20 µM [1, 4]: 108 ± 5%
17β-HSD2 inhibition (in words) [1]: did not inhibit

NC(=O)Cc1ccc(O)cc1 [S16, 2-(4-hydroxyphenyl)acetamide]
remaining activity at 20 µM [1, 4]: 110 ± 10%
17β-HSD2 inhibition (in words) [1]: did not inhibit

COC(=O)c1cc2c(c(O)c1OC)[C@H](C)C[C@@H](O)[C@H]2[C@@H](C)CCC=C(C)C [S18, methyl (5R,7R,8S)-4,7-dihydroxy-3-methoxy-5-methyl-8-((S)-6-methylhept-5-en-2-yl)-5,6,7,8-tetrahydronaphthalene-2-carboxylate]
17β-HSD2 remaining activity at 20 μM (% of control) [1, 4]: 59 ± 7%

CC(Cc1ccc(O)c(O)c1)C(C)Cc1ccc(O)c(O)c1 (stereo not drawn) [compound 1, nordihydroguaiaretic acid]
IC50 [1]: 0.38 ± 0.04 µM
times more active toward 17β-HSD2 than 17β-HSD1 [2]: 15 times
selectivity factor ([2]; 17β-HSD1 versus 17β-HSD2): 15
selectivity over 17β-HSD1 ([2]; 17β-HSD2 over 17β-HSD1): ≥ 8 fold
IC50 [2]: 5.5 ± 1.3 µM

CC1(C)CC[C@]2(C(=O)O)CC[C@]3(C)C(=CC[C@@H]4[C@@]5(C)CC[C@H](O)C(C)(C)[C@@H]5CC[C@]43C)[C@@H]2C1 [compound 2, oleanolic acid]
remaining activity at 20 µM [1]: 49 ± 6%

COc1cc(-c2cc(=O)c3c(O)c(OC)c(O)cc3o2)ccc1O [compound 5, jaceosidin]
IC50 [1]: 9.3 µM and 9.27 µM
classification (17β-HSD2 inhibition) ([1]; flavonoid SAR model, Table 4): active

O=C(/C=C/c1ccc(O)cc1)c1ccc(O)cc1O [compound 6, isoliquiritigenin]
IC50 [1]: 0.36 ± 0.08 µM

COc1cc([C@H]2OC[C@H]3[C@@H]2CO[C@@H]3c2ccc(O)c(OC)c2)ccc1O [compound 7, pinoresinol]
remaining activity at 20 µM [1]: 42 ± 5%

O=c1c2c(O)cc(O)cc2oc2oc3cc(O)ccc3c12 [compound 8, lupinalbin A]
IC50 [2]: 0.049 ± 0.019 µM

O=C(/C=C/c1ccc(O)c(O)c1)c1ccc(O)cc1O [compound 10, butein]
IC50 [1]: 7.3 ± 2.7 µM
fold less active than 6 (17β-HSD2 IC50) ([1]; compared with compound 6): 20 fold

O=C(/C=C/c1ccc(O)c(O)c1)O[C@H](Cc1ccc(O)c(O)c1)C(=O)O [compound 11, rosmarinic acid]
IC50 [1]: 3.72 ± 0.17 µM
17β-HSD1 inhibition (in words; n.i. = no inhibition) [2]: n.i. ^a

CCOC(=O)c1ccc(O)c(OC)c1 [compound 12, ethyl vanillate]
IC50 [1]: 1.28 ± 0.26 µM
17β-HSD1 inhibition (in words; n.i. = no inhibition) [2]: n.i.

O=C(Cc1ccc(O)c(Cl)c1)NCCc1ccccc1 [compound 13, 2-(3-chloro-4-hydroxyphenyl)-N-phenethylacetamide]
IC50 [1]: 1.57 ± 0.16 µM
17β-HSD1 inhibition (in words; n.i. = no inhibition) [2]: n.i.

COCCNC(=O)Cc1ccc(O)c(Cl)c1 [compound 14, 2-(3-chloro-4-hydroxyphenyl)-N-(2-methoxyethyl)acetamide]
remaining activity at 20 µM [1, 4]: 37 ± 3%
17β-HSD2 inhibition (in words) [1]: moderately active

CCCCNC(=O)Cc1ccc(O)c(Cl)c1 [compound 15, N-butyl-2-(3-chloro-4-hydroxyphenyl)acetamide]
remaining activity at 20 µM [1, 4]: 33 ± 6%
17β-HSD2 inhibition (in words) [1]: moderately active

O=C1CC(c2ccccc2)Oc2ccccc21 (stereo not drawn) [compound 19, flavanone]
activity [3]: 70.7 ± 2.6%
classification (17β-HSD2 inhibition) [3]: inactive^24

O=C1CC(c2ccccc2O)Oc2ccccc21 (stereo not drawn) [compound 20, 2´-hydroxyflavanone]
activity [3]: 50.7 ± 0.5%
classification (17β-HSD2 inhibition) [3]: inactive^24

O=C1CC(c2ccc(O)cc2)Oc2ccccc21 (stereo not drawn) [compound 21, 4´-hydroxyflavanone]
activity [3]: 63.6 ± 3.5%
classification (17β-HSD2 inhibition) [3]: inactive^24

O=C1CC(c2ccccc2)Oc2ccc(O)cc21 (stereo not drawn) [compound 22, 6-hydroxyflavanone]
activity [3]: 42.5 ± 1.8%
classification (17β-HSD2 inhibition) [3]: inactive^24

O=C1C[C@@H](c2ccc(O)cc2)Oc2cc(O)cc(O)c21 [compound 23, naringenin]
classification (17β-HSD2 inhibition) [3]: active^24
IC50 [3]: 14.4 ± 4.5 µM

COc1ccc([C@@H]2CC(=O)c3c(O)cc(O)cc3O2)cc1O [compound 24, hesperetin]
activity [3]: 36.4 ± 1.7%
classification (17β-HSD2 inhibition) [3]: inactive^24

O=c1cc(-c2ccccc2)oc2ccccc12 [compound 25, flavone]
activity [3]: 63.9 ± 0.6%
classification (17β-HSD2 inhibition) [3]: inactive^24

O=c1cc(-c2ccccc2)oc2cc(O)ccc12 [compound 26, 7-hydroxyflavone]
activity [3]: 23.1 ± 1.1%
classification (17β-HSD2 inhibition) [3]: weak^24
IC50 [3]: > 20 µM

O=c1cc(-c2ccccc2)oc2cc(O)cc(O)c12 [compound 27, chrysin]
activity [3]: 32.8 ± 5.1%
classification (17β-HSD2 inhibition) [3]: inactive^24

O=c1c(-c2ccc(O)cc2)coc2cc(O)ccc12 [compound 28, daidzein]
activity [3]: 58.3 ± 6.1%
classification (17β-HSD2 inhibition) [3]: inactive^24

O=c1cc(-c2ccc(O)cc2)oc2cc(O)cc(O)c12 [compound 29, apigenin]
activity [3]: 25.2 ± 0.9%
classification (17β-HSD2 inhibition) [3]: weak^24
IC50 [3]: > 20 µM

O=c1c(O)c(-c2ccc(O)cc2)oc2cc(O)cc(O)c12 [compound 30, kaempferol]
classification (17β-HSD2 inhibition) [3]: active^24
IC50 [3]: 0.36 ± 0.04 µM

O=c1c(O)c(-c2ccc(O)c(O)c2)oc2cc(O)cc(O)c12 [compound 31, quercetin]
classification (17β-HSD2 inhibition) [3]: active^24
IC50 [3]: 1.54 ± 0.22 µM

O=c1c(-c2ccc(O)cc2)coc2cc(O)cc(O)c12 [compound 32, genistein]
classification (17β-HSD2 inhibition) [3]: active^24

COc1ccc(-c2coc3cc(O)cc(O)c3c2=O)cc1 [compound 33, biochanin A]
classification (17β-HSD2 inhibition) [3]: active^24
IC50 [3]: 9.9 ± 1.87 µM

pestalactam A [S13]
17β-HSD2 remaining activity at 20 μM (% of control) [1, 4]: 85 ± 11%
